Assay results from ChEMBL document CHEMBL3352328, “Synthesis and biological evaluation of a new series of N-acyldiamines as potential antibacterial and antifungal agents” (2014).
Converted amounts (≈) assume the structure as drawn. One block for each compound: values may come before it. The source made the active and inactive calls. No cut-off for these calls is given here.

What was measured:
Candida parapsilosis = assay: Antifungal activity against Candida parapsilosis ATCC 22019 by broth microdilution method; assay type: functional; conditions: Lodderomyces parapsilosis
Pseudomonas aeruginosa [1] = assay: Antimicrobial activity against Pseudomonas aeruginosa ATCC 27853 by broth dilution method; assay type: functional
Staphylococcus aureus [2] = assay: Antimicrobial activity against Staphylococcus aureus ATCC 29213 by broth dilution method; assay type: functional
Candida tropicalis = assay: Antifungal activity against Candida tropicalis ATCC 750 by broth microdilution method; assay type: functional
Escherichia coli [3] = assay: Antimicrobial activity against Escherichia coli ATCC 11229 by broth dilution method; assay type: functional
Nakaseomyces glabratus = assay: Antifungal activity against Candida glabrata ATCC 90030 by broth microdilution method; assay type: functional
[4] = system: Staphylococcus epidermidis; assay: Antimicrobial activity against Staphylococcus epidermidis ATCC 12228 by broth dilution method; assay type: functional
Candida albicans = assay: Antifungal activity against Candida albicans ATCC 18804 by broth microdilution method; assay type: functional
Staphylococcus aureus [5] = assay: Bactericidal activity against methicillin-resistant Staphylococcus aureus clinical isolate 8 after 24 hrs; assay type: functional; conditions: isolate 8, 24 h
Staphylococcus aureus [6] = assay: Bactericidal activity against methicillin-resistant Staphylococcus aureus clinical isolate 18 after 24 hrs; assay type: functional; conditions: isolate 18, 24 h
Staphylococcus aureus [7] = assay: Bactericidal activity against methicillin-resistant Staphylococcus aureus clinical isolate 6 after 24 hrs; assay type: functional; conditions: isolate 6, 24 h
Staphylococcus aureus [8] = assay: Bactericidal activity against methicillin-resistant Staphylococcus aureus clinical isolate 12 after 24 hrs; assay type: functional; conditions: isolate 12, 24 h
[9] = system: Staphylococcus epidermidis; assay: Bactericidal activity against Staphylococcus epidermidis ATCC 12228 after 24 hrs; assay type: functional; conditions: ATCC 12228, 24 h
Staphylococcus aureus [10] = assay: Bactericidal activity against methicillin-resistant Staphylococcus aureus clinical isolate 15 after 24 hrs; assay type: functional; conditions: isolate 15, 24 h
Staphylococcus aureus [11] = assay: Bactericidal activity against methicillin-resistant Staphylococcus aureus clinical isolate 4 after 24 hrs; assay type: functional; conditions: isolate 4, 24 h
Staphylococcus aureus [12] = assay: Bactericidal activity against methicillin-resistant Staphylococcus aureus clinical isolate 9 after 24 hrs; assay type: functional; conditions: isolate 9, 24 h
Staphylococcus aureus [13] = assay: Bactericidal activity against methicillin-resistant Staphylococcus aureus clinical isolate 21 after 24 hrs; assay type: functional; conditions: isolate 21, 24 h
Staphylococcus aureus [14] = assay: Bactericidal activity against methicillin-resistant Staphylococcus aureus clinical isolate 2 after 24 hrs; assay type: functional; conditions: isolate 2, 24 h
Staphylococcus aureus [15] = assay: Bactericidal activity against methicillin-resistant Staphylococcus aureus clinical isolate 20 after 24 hrs; assay type: functional; conditions: isolate 20, 24 h
Staphylococcus aureus [16] = assay: Bactericidal activity against methicillin-resistant Staphylococcus aureus clinical isolate 17 after 24 hrs; assay type: functional; conditions: isolate 17, 24 h
Staphylococcus aureus [17] = assay: Bactericidal activity against methicillin-resistant Staphylococcus aureus clinical isolate 16 after 24 hrs; assay type: functional; conditions: isolate 16, 24 h
Staphylococcus aureus [18] = assay: Bactericidal activity against methicillin-resistant Staphylococcus aureus clinical isolate 13 after 24 hrs; assay type: functional; conditions: isolate 13, 24 h
Staphylococcus aureus [19] = assay: Bactericidal activity against methicillin-resistant Staphylococcus aureus clinical isolate 7 after 24 hrs; assay type: functional; conditions: isolate 7, 24 h
Staphylococcus aureus [20] = assay: Bactericidal activity against methicillin-resistant Staphylococcus aureus clinical isolate 10 after 24 hrs; assay type: functional; conditions: isolate 10, 24 h
Staphylococcus aureus [21] = assay: Bactericidal activity against methicillin-resistant Staphylococcus aureus clinical isolate 11 after 24 hrs; assay type: functional; conditions: isolate 11, 24 h
Staphylococcus aureus [22] = assay: Bactericidal activity against methicillin-resistant Staphylococcus aureus clinical isolate 5 after 24 hrs; assay type: functional; conditions: isolate 5, 24 h
Escherichia coli [23] = assay: Bacteriostatic activity against Escherichia coli ATCC 11229 after 24 hrs; assay type: functional, organism-based
Staphylococcus aureus [24] = assay: Bactericidal activity against methicillin-resistant Staphylococcus aureus clinical isolate 14 after 24 hrs; assay type: functional; conditions: isolate 14, 24 h
Staphylococcus aureus [25] = assay: Bactericidal activity against methicillin-resistant Staphylococcus aureus clinical isolate 1 after 24 hrs; assay type: functional; conditions: isolate 1, 24 h
Staphylococcus aureus [26] = assay: Bactericidal activity against methicillin-resistant Staphylococcus aureus clinical isolate 3 after 24 hrs; assay type: functional; conditions: isolate 3, 24 h
Staphylococcus aureus [27] = assay: Bactericidal activity against methicillin-resistant Staphylococcus aureus clinical isolate after 24 hrs; assay type: functional
Staphylococcus aureus [28] = assay: Bactericidal activity against Staphylococcus aureus ATCC 29213 after 24 hrs; assay type: functional; conditions: ATCC 29213, 24 h
Staphylococcus aureus [29] = assay: Bactericidal activity against methicillin-resistant Staphylococcus aureus clinical isolate 19 after 24 hrs; assay type: functional; conditions: isolate 19, 24 h
Escherichia coli [30] = assay: Bactericidal activity against Escherichia coli ATCC 11229 after 24 hrs; assay type: functional; conditions: ATCC 11229, 24 h
Pseudomonas aeruginosa [31] = assay: Bactericidal activity against Pseudomonas aeruginosa ATCC 27853 after 24 hrs; assay type: functional; conditions: ATCC 27853, 24 h
Staphylococcus aureus [32] = assay: Bacteriostatic activity against Staphylococcus aureus ATCC 29213 after 24 hrs; assay type: functional, organism-based
Pseudomonas aeruginosa [33] = assay: Bacteriostatic activity against Pseudomonas aeruginosa ATCC 27853 after 24 hrs; assay type: functional, organism-based

Structure (SMILES): CCCCCCCC/C=C\CCCCCCCC(=O)NCCCN
MIC (Candida parapsilosis): 4 µg/mL (≈ 11.8 µM) | MIC (Pseudomonas aeruginosa [1]): > 1020 µg/mL | MBC (Staphylococcus aureus [5]): 16 µg/mL (≈ 47.3 µM) | MBC (Staphylococcus aureus [6]): 8 µg/mL (≈ 23.6 µM) | MBC (Staphylococcus aureus [7]): 64 µg/mL (≈ 189 µM) | MBC (Staphylococcus aureus [8]): 16 µg/mL (≈ 47.3 µM) | MBC [9]: 16 µg/mL (≈ 47.3 µM) | MBC (Staphylococcus aureus [10]): 16 µg/mL (≈ 47.3 µM) | MBC (Staphylococcus aureus [11]): 512 µg/mL (≈ 1510 µM) | MIC (Staphylococcus aureus [2]): 2 µg/mL (≈ 5.91 µM) | MIC (Candida tropicalis): 4 µg/mL (≈ 11.8 µM) | MBC (Staphylococcus aureus [12]): 16 µg/mL (≈ 47.3 µM) | MIC (Escherichia coli [3]): 4 µg/mL (≈ 11.8 µM) | MBC (Staphylococcus aureus [13]): 512 µg/mL (≈ 1510 µM) | MBC (Staphylococcus aureus [14]): 16 µg/mL (≈ 47.3 µM) | MBC (Staphylococcus aureus [15]): 1020 µg/mL (≈ 3020 µM) | MBC (Staphylococcus aureus [16]): 16 µg/mL (≈ 47.3 µM) | MBC (Staphylococcus aureus [17]): 8 µg/mL (≈ 23.6 µM) | MBC (Staphylococcus aureus [18]): 64 µg/mL (≈ 189 µM) | MBC (Staphylococcus aureus [19]): 16 µg/mL (≈ 47.3 µM) | MBC (Staphylococcus aureus [20]): 8 µg/mL (≈ 23.6 µM) | MBC (Staphylococcus aureus [21]): 16 µg/mL (≈ 47.3 µM) | MBC (Staphylococcus aureus [22]): 16 µg/mL (≈ 47.3 µM) | Activity (Escherichia coli [23]): Active | MBC (Staphylococcus aureus [24]): 1020 µg/mL (≈ 3020 µM) | MBC (Staphylococcus aureus [25]): 16 µg/mL (≈ 47.3 µM) | MIC (Nakaseomyces glabratus): 4 µg/mL (≈ 11.8 µM) | MBC (Staphylococcus aureus [26]): 16 µg/mL (≈ 47.3 µM) | MIC [4]: 1 µg/mL (≈ 2.95 µM) | MIC50 (Staphylococcus aureus [27]): 16 µg/mL (≈ 47.3 µM) | MIC90 (Staphylococcus aureus [27]): 512 µg/mL (≈ 1510 µM) | MIC (Candida albicans): 2 µg/mL (≈ 5.91 µM) | MBC (Staphylococcus aureus [28]): 128 µg/mL (≈ 378 µM) | MBC (Staphylococcus aureus [29]): 4 µg/mL (≈ 11.8 µM)

Structure (SMILES): CCCCCCCCCCCC(=O)NCCCN
MIC (Candida parapsilosis): 64 µg/mL (≈ 250 µM) | MIC (Pseudomonas aeruginosa [1]): 64 µg/mL (≈ 250 µM) | MBC (Escherichia coli [30]): 512 µg/mL (≈ 2000 µM) | MBC [9]: 32 µg/mL (≈ 125 µM) | MIC (Staphylococcus aureus [2]): 256 µg/mL (≈ 998 µM) | MIC (Candida tropicalis): 128 µg/mL (≈ 499 µM) | MIC (Escherichia coli [3]): 128 µg/mL (≈ 499 µM) | MBC (Pseudomonas aeruginosa [31]): 256 µg/mL (≈ 998 µM) | Activity (Staphylococcus aureus [32]): Active | MIC (Nakaseomyces glabratus): 32 µg/mL (≈ 125 µM) | MIC [4]: 32 µg/mL (≈ 125 µM) | MIC (Candida albicans): 256 µg/mL (≈ 998 µM)

Structure (SMILES): CCCCCCCCCCCC(=O)NCCCCN
MIC (Candida parapsilosis): 256 µg/mL (≈ 947 µM) | MIC (Pseudomonas aeruginosa [1]): 32 µg/mL (≈ 118 µM) | MBC (Escherichia coli [30]): 64 µg/mL (≈ 237 µM) | MBC [9]: 16 µg/mL (≈ 59.2 µM) | MIC (Staphylococcus aureus [2]): 64 µg/mL (≈ 237 µM) | MIC (Candida tropicalis): 128 µg/mL (≈ 473 µM) | MIC (Escherichia coli [3]): 64 µg/mL (≈ 237 µM) | MBC (Pseudomonas aeruginosa [31]): 32 µg/mL (≈ 118 µM) | MIC (Nakaseomyces glabratus): 1020 µg/mL (≈ 3790 µM) | MIC [4]: 16 µg/mL (≈ 59.2 µM) | MIC (Candida albicans): 256 µg/mL (≈ 947 µM) | MBC (Staphylococcus aureus [28]): 512 µg/mL (≈ 1890 µM)

Structure (SMILES): CCC(C)n1ncn(-c2ccc(N3CCN(c4ccc(OCC5COC(Cn6cncn6)(c6ccc(Cl)cc6Cl)O5)cc4)CC3)cc2)c1=O (configuration not stated) [ITRACONAZOLE]
MIC (Candida parapsilosis): > 512 µg/mL | MIC (Candida tropicalis): > 512 µg/mL | MIC (Nakaseomyces glabratus): 256 µg/mL (≈ 363 µM) | MIC (Candida albicans): 0.5 µg/mL (≈ 0.709 µM)

Further compounds by falling MIC (Candida parapsilosis), results first:

MIC (Candida parapsilosis): 8 µg/mL (≈ 25.6 µM) | MIC (Pseudomonas aeruginosa [1]): > 1020 µg/mL | MIC (Staphylococcus aureus [2]): > 1020 µg/mL | MIC (Candida tropicalis): 16 µg/mL (≈ 51.2 µM) | MIC (Escherichia coli [3]): 32 µg/mL (≈ 102 µM) | MIC (Nakaseomyces glabratus): 8 µg/mL (≈ 25.6 µM) | MIC [4]: 4 µg/mL (≈ 12.8 µM) | MIC (Candida albicans): 64 µg/mL (≈ 205 µM)
Structure (SMILES): CCCCCCCCCCCCCCCC(=O)NCCCN
MBC [9]: 64 µg/mL (≈ 205 µM) | Activity (Escherichia coli [23]): Active

MIC (Candida parapsilosis): 4 µg/mL (≈ 13.4 µM) | MIC (Pseudomonas aeruginosa [1]): > 1020 µg/mL | MIC (Staphylococcus aureus [2]): > 1020 µg/mL | MIC (Candida tropicalis): 16 µg/mL (≈ 53.6 µM) | MIC (Escherichia coli [3]): > 1020 µg/mL | MIC (Nakaseomyces glabratus): 8 µg/mL (≈ 26.8 µM) | MIC [4]: > 1020 µg/mL | MIC (Candida albicans): 4 µg/mL (≈ 13.4 µM)
Structure (SMILES): CCCCCCCCCCCCCCCC(=O)NCCN

MIC (Candida parapsilosis): 1 µg/mL (≈ 2.84 µM) | MIC (Pseudomonas aeruginosa [1]): > 1020 µg/mL | MIC (Staphylococcus aureus [2]): 16 µg/mL (≈ 45.4 µM) | MIC (Candida tropicalis): 4 µg/mL (≈ 11.3 µM) | MIC (Escherichia coli [3]): 8 µg/mL (≈ 22.7 µM) | MIC (Nakaseomyces glabratus): 2 µg/mL (≈ 5.67 µM) | MIC [4]: 4 µg/mL (≈ 11.3 µM) | MIC (Candida albicans): 2 µg/mL (≈ 5.67 µM)
Structure (SMILES): CCCCCCCC/C=C\CCCCCCCC(=O)NCCCCN
Activity (Pseudomonas aeruginosa [33]): Active | MBC [9]: 128 µg/mL (≈ 363 µM) | Activity (Escherichia coli [23]): Active | Activity (Staphylococcus aureus [32]): Active
